Measured values published in patent publication US20110014243A1, “PHARMACEUTICAL COMPOSITIONS” (priority 2007, published 2011).

Assay: Stability of milled and unmilled Compound 1A in combination with calcium carbonate, HPLC
Assay type: physicochemical
Settings: mixed with calcium carbonate, open vials at 50° C. and 75% relative humidity
Experimental: Samples containing 1092 mg of calcium carbonate and […] Compound 1A (either milled or unmilled) were prepared and weighed into small amber glass bottles. Samples were stored in open vials at 50° C. and 75% relative humidity. The samples were then removed after two or four weeks and stored at room temperature for up to four days prior to being analysed and were stored in open vials at 50° C. and 75% RH. The blends of Compound 1A and calcium carbonate were transferred to a glass volumetric flask and diluted to a volume of 10 ml or 100 ml with a 0.05% trifluoroacetic acid (TFA) solution in 50/50 acetonitrile/water to provide a 1 mg/ml solution of Compound 1A. The solution was stirred using a magnetic stirrer for 20 minutes then left for 5 minutes before 1 ml aliquots were taken using a plastic syringe. The aliquots were filtered through a 0.45 μm syringe filter into amber glass vials for HPLC analysis.

area % of Compound 2A compared to Compound 1A (milled, 2 weeks): 0.2 area %
area % of Compound 2A compared to Compound 1A (milled, 4 weeks): 0.2 area %
area % of Compound 2A compared to Compound 1A (unmilled, 2 weeks): 0.2 area %
area % of Compound 2A compared to Compound 1A (unmilled, 4 weeks): 0.2 area %
SMILES: CC(C)c1cc(Oc2c(Br)cc(NC(=O)CC(=O)O)cc2Br)ccc1O [Compound 1A, 3-[[3,5-Dibromo-4-[4-hydroxy-3-(1-methylethyl)-phenoxy]-phenyl]-amino]-3-oxopropanoic acid]
